Reference: paper PMC11503492, “Activity-Based DNA-Encoded Library Screening for Selective Inhibitors of Eukaryotic Translation” (ACS Central Science, 2024)

Tests used:
Assay type in all cases: biochemical, wheat germ
[1] = test system: PCSK9-FS[1:33]-GFP translation; test: WG IVTT microplate activity assay, PCSK9-FS[1:33]-GFP frameshift counter template; details: for IC50: PCSK9-FS[1:33]-GFP template, triplicate, undetectable IC50 marked >300; for activity on PCSK9-FS[1:33]-GFP translation (in words): frameshift control
Source text: A commercially available wheat germ lysate (WG) IVTT system was employed to assay translation inhibition. Translation activity was detected via a GFP reporter, and the assay was miniaturized to picoliter-scale microfluidic droplets (Figure 1A,B). […] PCSK9 and RPL27 were truncated to the first 33 and 32 amino acids, respectively (PCSK9[1:33] and RPL27[1:32]). The sequences contain distinct PF846 stall sites and were both fused to a GFP reporter. The GFP reporter and a frameshift mutant of PCSK9[1:33] (PCSK9-FS[1:33]), which mutates the nascent chain sequence while maintaining a nearly identical mRNA sequence, were included as negative controls.[13] […] Sequence sensitivity was further confirmed by an N-terminal deletion series of PCSK9[1:33]-GFP; deletion of N-terminal residues increasingly ablated PCSK9[1:33]-GFP translation sensitivity to PF846 (Figure 1D). The WG IVTT assay was miniaturized using a previously described microfluidic circuit modified for longer incubation times (Figure S1)[27] using PF846 as a positive control compound, and assay statistical quality was calculated (Z′=0.7) (Figure 1E). To confirm detection of translation inhibition from library beads, hygromycin B, a nonselective aminoglycoside translation inhibitor, was coupled to beads displaying a photocleavable linker (PC-HygB). UV irradiation releases hygromycin from the bead, allowing it to interact with the WG IVTT assay in the droplet. PC-HygB bead photocleavage supernatant inhibited PCSK9[1:33]-GFP translation both in a microplate assay and in microfluidic droplets (Figure 1F,G, S2). Assay statistical quality using PC-HygB positive control beads was similarly calculated (Z′ = 0.75, Figure 1H). […]
436 Microplate IVTT Assays
437 Wheat germ lysate IVTT plate assays were prepared as 5 µL reactions. Wheat germ lysate
438 (3 µL) was added to test compound or vehicle control (1 µL) in a 384-well black microplate
439 and the reaction was incubated (10 min, RT). Template (1 µL) was added and reaction
440 progress was immediately monitored (λex = 480 nm, λem = 530 nm, 27 °C, 2 h). Rela-
441 tive activity was calculated using the slope of fluorescence increase over time (at 15–30
442 min post reaction initiation) for compound samples relative to that of the DMSO vehicle
443 control. All microplate experiments contained 25 ng/µL plasmid, except for assays with
445 respectively. HeLa lysate IVTT plate assays were prepared as 5.5 µL reactions. […]

[2] = test system: PCSK9[1:33]-GFP translation; test: Microfluidic activity-based DEL screen in WG IVTT droplets, PCSK9[1:33]-GFP, hit k class by sequencing; details: number of times hit structure observed on distinct beads, summed across PCSK9[1:33]-GFP screens; *** p < 0.001, NS not significant
Description: (§1) The validated PF846-inspired library was screened to discover novel translation inhibitors. DEL beads were encapsulated in microfluidic droplets of WG IVTT and irradiated with UV in flow to liberate DEL members into the droplets. The photodosed droplets were incubated and sorted based on fluorescence.[25] PCSK9[1:33]-GFP was chosen as a proof-of-concept target, and PCSK9-FS[1:33]-GFP was used as a counter screen target to identify nonselective compounds. PC-HygB were mixed with DEL beads and screened in the microfluidic device for inhibitors of translation. […] Droplet generation, bead introduction, and library and control bead hit rate were uniform during the screen (Figure 3, bottom).
(§2) Hit collection DNA tags from the PCSK9[1:33]-GFP and PCSK9-FS[1:33]-GFP screens were sequenced to deduce the structures of molecules that inhibited PCSK9[1:33]- or PCSK9-FS[1:33]-GFP translation. Hit structure k class, the number of times a given hit structure is observed on distinct beads,[31] was summed across screens and visualized as a heat map (Figure 4A). […] The combined hit sets for the two templates contained 121 unique hits with k ≥ 17 across the two screening campaigns. The most frequently observed cycle 1 starter BBs were 1 and 2, which share an 8-methylisoquinoline moiety, but differ in the vector for cycle 2 carboxylic acid connection, and 3, which contains an N-methylazaindole moiety. The most frequently identified cycle 2 tails included carboxylic acids 4–7. […] Substituted pyrazole 6 and pyridyl-benzimidazole 7 also appeared frequently with the aforementioned starters. There were 5 hits that appeared with high k class in both PCSK9[1:33]-GFP and PCSK9[1:33]-FS-GFP screening campaigns.
(§3) 319 the droplet experiment to homogenize the bead suspension. Syringes were connected to
(§4) 320 fluidic inputs with microbore Tygon tubing (0.01” x 0.03” IC × OD). Droplet generation oil
(§5) 321 (OIL1) was 1% picosurf in HFE. Spacing (OIL2) and pinning (OIL3) oils were neat HFE.
(§6) 322 Assay reagents were driven by displacement syringe pumps (Legato 100, KD Scientific,
(§7) 323 Holliston, MA) through the circuit. OIL2 and OIL3 were initially flowed (22 µL/min and
(§8) 324 12 µL/min, respectively) and hit and waste shunt tubing were clamped to backfill the
(§9) 325 circuit. Once the incubator was filled with oil, the hit and waste tubing were unclamped
(§10) 326 and back shunts were clamped. AQ1, AQ2, and OIL1 flows were initiated (960 nL/min,
(§11) 327 640 nL/min, and 1200 nL/min, respectively) and held constant during the screen. Once
(§12) 328 droplet generation equilibrated (∼10 min), the main shunt was clamped and droplets
(§13) 329 started to fill the incubator. When droplets filled the incubator and entered the sorting
(§14) 330 region, data acquisition and screening was initiated.
(§15) 331 The custom confocal LIF detection setup and LabView code were previously described.S3
(§16) 332 Briefly, photon counting PMTs (H7828, Hamamatsu, Middlesex, NJ) were used to detect
(§17) 333 droplet fluorescence emission using a custom two-channel (520 and 570 nm) confocal mi-
(§18) 334 croscope with laser excitation (488 nm, 20 mW, OBIS-488 20LS, Coherent Inc., Santa Clara,
(§19) 335 CA). A data acquisition board (DAQ, NI, USB-6341, National Instruments) was used to
(§20) 336 digitize PMT signal, which was binned into counts, and in-house LabView code was used
(§21) 337 to control acquisition and execute droplet sorting decisions. Signal was smoothed in real-
(§22) 338 time using median-filter smoothing (width = 3). Droplets were identified by the 570 nm
(§23) 339 channel signal and the maximum signal in the 520 nm channel (max = countsn-1 when
(§24) 340 countsn <countsn-1) was set as the droplet peak value. A roaming sort threshold was
(§25) 342 the 520 nm channel. The threshold was calculated as µ - 5σ, where µ andσ were the mean
(§26) 343 and standard deviation of the previous 300 droplets’ fluorescence values, respectively. Hit
(§27) 344 droplets were not included in the calculation of droplet mean and standard deviation. A […]

[3] = test system: PCSK9-FS[1:33]-GFP translation; test: Microfluidic activity-based DEL counter screen in WG IVTT droplets, PCSK9-FS[1:33]-GFP, hit k class by sequencing; details: number of times hit structure observed on distinct beads, summed across PCSK9-FS[1:33]-GFP screens; *** p < 0.001, NS not significant
Description: as §1, §2, §3, §4, §5, §6, §7, §8, §9, §10, §11, §12, §13, §14, §15, §16, §17, §18, §19, §20, §21, §22, §23, §24, §25, §26, §27

Cc1cccc2ccnc(N(C(=O)C3CCN(C(=O)c4cccc5c(C#N)c[nH]c45)CC3)[C@@H]3CCCNC3)c12 [Compound 9]
IC50 [1]: 24 ± 0.4 µM | activity on PCSK9-FS[1:33]-GFP translation (in words) [1]: similarly active on both templates | k class PCSK9 [2]: 28 | k class PCSK9-FS [3]: 18

Cc1cccc2ccnc(N(C(=O)[C@H]3CCCN(C(=O)c4cccc5c(C#N)c[nH]c45)C3)[C@@H]3CCCNC3)c12 [Compound 8]
IC50 [1]: > 300 µM | activity on PCSK9-FS[1:33]-GFP translation (in words) [1]: inactive | k class PCSK9 [2]: 47 | k class PCSK9-FS [3]: 0
